# Assay results taken from PMC11157767 (Molecular Cancer, 2024).
# System: TFG-MET allograft tumors
# Experiment: RNA-sequencing, differential expression and GSEA of TFG-MET allograft tumors
# Format: in vivo, mouse
# Conditions: for NES / ES: CAP v Veh
# Protocol: Error bars display standard error of mean, statistical significance was determined using t-test analysis. (****;p<0.0001, ***;p<0.001, **;p<0.01, *;p<0.05). […] Each dot represents an individual replicate. Error bars display standard error of the mean.
# Each dot represents one gene.
smiles,measurement,setting,value
CNC(=O)c1ccc(-c2cnc3ncc(Cc4ccc5ncccc5c4)n3n2)cc1F [Capmatinib],NES,"GOMF_METHYL_CPG_BINDING, padj 0.00511198",-1.901
same,ES,GOMF_MHC_CLASS_I_PROTEIN_BINDING,0.5483
same,NES,"GOMF_MHC_CLASS_I_PROTEIN_BINDING, padj 0.0474647",1.828
same,ES,GOMF_MHC_PROTEIN_BINDING,0.5523
same,NES,"GOMF_MHC_PROTEIN_BINDING, padj 0.00543159",2.003
same,ES,GOMF_MHC_PROTEIN_COMPLEX_BINDING,0.5077
same,NES,"GOMF_MHC_PROTEIN_COMPLEX_BINDING, padj 0.0199782",1.841
same,ES,GOMF_MOLECULAR_CARRIER_ACTIVITY,-0.4555
same,NES,"GOMF_MOLECULAR_CARRIER_ACTIVITY, padj 0.0120933",-1.714
same,ES,GOMF_MONOCARBOXYLIC_ACID_BINDING,0.3828
same,NES,"GOMF_MONOCARBOXYLIC_ACID_BINDING, padj 0.0474647",1.672
same,ES,GOMF_MRNA_3_UTR_AU_RICH_REGION_BINDING,-0.5181
same,NES,"GOMF_MRNA_3_UTR_AU_RICH_REGION_BINDING, padj 0.0473079",-1.618
same,NES,"GOMF_NUCLEAR_HORMONE_RECEPTOR_BINDING, padj 0.072562",-1.431
same,ES,GOMF_NUCLEAR_IMPORT_SIGNAL_RECEPTOR_ACTIVITY,-0.6033
same,NES,"GOMF_NUCLEAR_IMPORT_SIGNAL_RECEPTOR_ACTIVITY, padj 0.0320889",-1.75
same,ES,GOMF_NUCLEAR_LOCALIZATION_SEQUENCE_BINDING,-0.6311
same,NES,"GOMF_NUCLEAR_LOCALIZATION_SEQUENCE_BINDING, padj 0.00765978",-1.864
same,ES,GOMF_NUCLEOSOMAL_DNA_BINDING,-0.5966
same,NES,"GOMF_NUCLEOSOMAL_DNA_BINDING, padj 0.0072907",-1.89
same,ES,GOMF_N_ACETYLTRANSFERASE_ACTIVITY,-0.4164
same,NES,"GOMF_N_ACETYLTRANSFERASE_ACTIVITY, padj 0.0419799",-1.576
same,ES,GOMF_N_ACYLTRANSFERASE_ACTIVITY,-0.4102
same,NES,"GOMF_N_ACYLTRANSFERASE_ACTIVITY, padj 0.0206273",-1.607
same,ES,GOMF_OXIDOREDUCTASE_ACTIVITY_ACTING_ON_PEROXIDE_AS_ACCEPTOR,0.4091
same,NES,"GOMF_OXIDOREDUCTASE_ACTIVITY_ACTING_ON_PEROXIDE_AS_ACCEPTOR, padj 0.0419799",1.715
same,ES,GOMF_PATTERN_RECOGNITION_RECEPTOR_ACTIVITY,0.5546
same,NES,"GOMF_PATTERN_RECOGNITION_RECEPTOR_ACTIVITY, padj 0.0257673",1.913
same,ES,GOMF_PEPTIDE_LYSINE_N_ACETYLTRANSFERASE_ACTIVITY,-0.4722
same,NES,"GOMF_PEPTIDE_LYSINE_N_ACETYLTRANSFERASE_ACTIVITY, padj 0.0420426",-1.64
same,ES,GOMF_PEPTIDE_N_ACETYLTRANSFERASE_ACTIVITY,-0.5177
same,NES,"GOMF_PEPTIDE_N_ACETYLTRANSFERASE_ACTIVITY, padj 0.00513885",-1.848
same,ES,GOMF_PHOSPHATIDYLINOSITOL_BINDING,-0.3004
same,NES,"GOMF_PHOSPHATIDYLINOSITOL_BINDING, padj 0.0651825",-1.368
same,ES,GOMF_POLY_A_BINDING,-0.5704
same,NES,"GOMF_POLY_A_BINDING, padj 0.0381242",-1.705
same,ES,GOMF_POLY_PURINE_TRACT_BINDING,-0.5827
same,NES,"GOMF_POLY_PURINE_TRACT_BINDING, padj 0.00978552",-1.871
same,ES,GOMF_POLY_PYRIMIDINE_TRACT_BINDING,-0.5996
same,NES,"GOMF_POLY_PYRIMIDINE_TRACT_BINDING, padj 0.0067416",-1.9
same,ES,GOMF_PROMOTER_SPECIFIC_CHROMATIN_BINDING,-0.4442
same,NES,"GOMF_PROMOTER_SPECIFIC_CHROMATIN_BINDING, padj 0.0320889",-1.624
same,ES,GOMF_PROTEIN_DEMETHYLASE_ACTIVITY,-0.5705
same,NES,"GOMF_PROTEIN_DEMETHYLASE_ACTIVITY, padj 0.0162496",-1.8078
same,ES,GOMF_PROTEIN_DIMERIZATION_ACTIVITY,-0.2556
same,NES,"GOMF_PROTEIN_DIMERIZATION_ACTIVITY, padj 0.0359639",-1.243
same,ES,GOMF_PROTEIN_HETERODIMERIZATION_ACTIVITY,-0.3318
same,NES,"GOMF_PROTEIN_HETERODIMERIZATION_ACTIVITY, padj 0.0174921",-1.498
same,ES,GOMF_PROTEIN_KINASE_ACTIVITY,-0.2726
same,NES,"GOMF_PROTEIN_KINASE_ACTIVITY, padj 0.0456955",-1.304
same,ES,GOMF_PROTEIN_PHOSPHATASE_2A_BINDING,-0.5386
same,NES,"GOMF_PROTEIN_PHOSPHATASE_2A_BINDING, padj 0.0201355",-1.753
same,ES,GOMF_PROTEIN_SERINE_THREONINE_KINASE_ACTIVITY,-0.3032
same,NES,"GOMF_PROTEIN_SERINE_THREONINE_KINASE_ACTIVITY, padj 0.0120933",-1.428
same,ES,GOMF_PROTEIN_TYROSINE_PHOSPHATASE_ACTIVITY,-0.3851
same,NES,"GOMF_PROTEIN_TYROSINE_PHOSPHATASE_ACTIVITY, padj 0.0351889",-1.569
same,ES,GOMF_PROTON_CHANNEL_ACTIVITY,0.5654
same,NES,"GOMF_PROTON_CHANNEL_ACTIVITY, padj 0.036911",1.8848
same,ES,GOMF_PROTON_TRANSPORTING_ATP_SYNTHASE_ACTIVITY_ROTATIONAL_MECHANISM,0.5869
same,NES,"GOMF_PROTON_TRANSPORTING_ATP_SYNTHASE_ACTIVITY_ROTATIONAL_MECHANISM, padj 0.0283897",1.877
same,ES,GOMF_REGULATORY_RNA_BINDING,-0.5385
same,NES,"GOMF_REGULATORY_RNA_BINDING, padj 0.00683082",-1.8485
same,ES,GOMF_RIBONUCLEOPROTEIN_COMPLEX_BINDING,-0.5611
same,NES,"GOMF_RIBONUCLEOPROTEIN_COMPLEX_BINDING, padj 7.15005e-11",-2.398
same,ES,GOMF_RNA_POLYMERASE_CORE_ENZYME_BINDING,-0.5304
same,NES,"GOMF_RNA_POLYMERASE_CORE_ENZYME_BINDING, padj 0.00672226",-1.848
same,ES,GOMF_RNA_POLYMERASE_II_SPECIFIC_DNA_BINDING_TRANSCRIPTION_FACTOR_BINDING,-0.3093
same,NES,"GOMF_RNA_POLYMERASE_II_SPECIFIC_DNA_BINDING_TRANSCRIPTION_FACTOR_BINDING, padj 0.0419799",-1.413
same,ES,GOMF_RNA_POLYMERASE_II_TRANSCRIPTION_COREGULATOR_BINDING,-0.521
same,NES,"GOMF_RNA_POLYMERASE_II_TRANSCRIPTION_COREGULATOR_BINDING, padj 0.0452435",-1.627
same,ES,GOMF_RNA_POLYMERASE_II_TRANSCRIPTION_COREPRESSOR_BINDING,-0.5717
same,NES,"GOMF_RNA_POLYMERASE_II_TRANSCRIPTION_COREPRESSOR_BINDING, padj 0.0607303",-1.658
same,ES,GOMF_SCAVENGER_RECEPTOR_ACTIVITY,0.3949
same,NES,"GOMF_SCAVENGER_RECEPTOR_ACTIVITY, padj 0.0600708",1.665
same,ES,GOMF_SMAD_BINDING,-0.4569
same,NES,"GOMF_SMAD_BINDING, padj 0.00360904",-1.79
same,ES,GOMF_SNORNA_BINDING,-0.7989
same,NES,"GOMF_SNORNA_BINDING, padj 3.3197e-10",-2.624
same,ES,GOMF_SUMO_BINDING,-0.6876
same,NES,"GOMF_SUMO_BINDING, padj 0.00672226",-1.882
same,ES,GOMF_SUMO_TRANSFERASE_ACTIVITY,-0.594
same,NES,"GOMF_SUMO_TRANSFERASE_ACTIVITY, padj 0.0682113",-1.626
same,ES,GOMF_S_ADENOSYLMETHIONINE_DEPENDENT_METHYLTRANSFERASE_ACTIVITY,-0.5424
same,NES,"GOMF_S_ADENOSYLMETHIONINE_DEPENDENT_METHYLTRANSFERASE_ACTIVITY, padj 2.7667e-10",-2.336
same,ES,GOMF_THIOLESTER_HYDROLASE_ACTIVITY,0.4211
same,NES,"GOMF_THIOLESTER_HYDROLASE_ACTIVITY, padj 0.0377403",1.7345
same,ES,GOMF_TRANSCRIPTION_COREGULATOR_BINDING,-0.4265
same,NES,"GOMF_TRANSCRIPTION_COREGULATOR_BINDING, padj 0.0442278",-1.612
same,ES,GOMF_TRANSCRIPTION_COREPRESSOR_BINDING,-0.5161
same,ES,GOMF_TRANSITION_METAL_ION_BINDING,-0.2675
same,NES,"GOMF_TRANSITION_METAL_ION_BINDING, padj 0.0113612",-1.302
same,ES,GOMF_TRANSLATION_REGULATOR_ACTIVITY,-0.5628
same,NES,"GOMF_TRANSLATION_REGULATOR_ACTIVITY, padj 1.90601e-11",-2.407
same,ES,GOMF_TRNA_BINDING,-0.6579
same,NES,"GOMF_TRNA_BINDING, padj 2.7667e-10",-2.532
same,ES,GOMF_UBIQUITIN_LIKE_PROTEIN_BINDING,-0.3584
same,NES,"GOMF_UBIQUITIN_LIKE_PROTEIN_BINDING, padj 0.0474647",-1.467
same,ES,GOMF_UNFOLDED_PROTEIN_BINDING,-0.3758
same,NES GOCC_NUCLEOLUS,"GSEA CAP vs Veh, C5 GO CC, padj 2.86725e-63",-2.612
same,NES GOCC_RIBONUCLEOPROTEIN_COMPLEX,"GSEA CAP vs Veh, C5 GO CC, padj 3.5373e-43",-2.521
same,NES GOCC_NUCLEAR_BODY,"GSEA CAP vs Veh, C5 GO CC, padj 3.83827e-29",-2.196
same,NES GOCC_PRERIBOSOME,"GSEA CAP vs Veh, C5 GO CC, padj 8.43804e-27",-3.164
same,NES GOCC_CHROMOSOMAL_REGION,"GSEA CAP vs Veh, C5 GO CC, padj 8.8925e-17",-2.317
